Literature values in patent publication US9241912B2, “Agrochemical formulation comprising encapsulated pesticide” (priority 2011, dated 2016).
Values after ≈ are worked out from the molar mass of the structure shown.

Details: at 20° C.

| Compound | solubility in water [µg/mL] |
| --- | --- |
| CC(C)C(=O)C(C)(C)C [2,2,4-trimethyl-3-pentanone] | 5500 (≈ 42.9 mM) |
| CCCC(=O)C(C)(C)C [2,2-dimethyl-3-hexanone] | 2800 (≈ 21.8 mM) |
| CCC(=O)C(C)(C)C [2,2-dimethyl-3-pentanone] | 10400 (≈ 91.1 mM) |
| CCCC(C)(C)C(C)=O [3,3-dimethyl-2-hexanone] | 2700 (≈ 21.1 mM) |
| CCC(C)(C)C(C)=O [3,3-dimethyl-2-pentanone] | 7300 (≈ 63.9 mM) |
| CCC(C)(CC)C(C)=O [3-ethyl-3-methyl-2-pentanone] | 1800 (≈ 14 mM) |
| CC(=O)CC(C)(C)C [4,4-dimethyl-2-pentanone] | 10400 (≈ 91.1 mM) |
| CCC(=O)C(C)(C)CC [4,4-dimethyl-3-hexanone] | 2500 (≈ 19.5 mM) |
| CCCCC(C)=O [Example 2-hexanone, 2-hexanone] | 14000 (≈ 140 mM) |
| CCCCC(=O)CCC [Example 4-octanone, 4-octanone] | 1000 (≈ 7.8 mM) |
| CC1=CC(=O)CC(C)(C)C1 [isoporone] | 15000 (≈ 109 mM) |

The remaining lines, values ahead:

| solubility in water [µg/mL] | Compound |
| --- | --- |
| 1400 (≈ 10.9 mM) | CCCCC(=O)C(C)C [2-methyl-3-heptanone] |
| 6300 (≈ 55.2 mM) | CCCC(=O)C(C)C [2-methyl-3-hexanone] |
| 1700 (≈ 13.3 mM) | CCCC(=O)CC(C)C [2-methyl-4-heptanone] |
| 1400 (≈ 10.9 mM) | CCC(C)C(C)C(C)=O (stereo not shown) [3,4-dimethyl-2-hexanone] |
| 6700 (≈ 58.7 mM) | CC(=O)C(C)C(C)C (stereo not shown) [3,4-dimethyl-2-pentanone] |
| 4600 (≈ 40.3 mM) | CCC(CC)C(C)=O [3-ethyl-2-pentanone] |
| 1700 (≈ 13.3 mM) | CCC(C(C)=O)C(C)C (stereo not shown) [3-ethyl-4-methyl-2-pentanone] |
| 900 (≈ 7.02 mM) | CCCCC(C)C(C)=O (stereo not shown) [3-methyl-2-heptanone] |
| 4100 (≈ 35.9 mM) | CCCC(C)C(C)=O (stereo not shown) [3-methyl-2-hexanone] |
| 1900 (≈ 14.8 mM) | CCCC(=O)C(C)CC (stereo not shown) [3-methyl-4-heptanone] |
| 4300 (≈ 37.7 mM) | CCC(C)CC(C)=O (stereo not shown) [4-methyl-2-hexanone] |
| 5200 (≈ 45.5 mM) | CCC(=O)C(C)CC (stereo not shown) [4-methyl-3-hexanone] |
| 1000 (≈ 7.8 mM) | CCC(C)CCC(C)=O (stereo not shown) [5-methyl-2-heptanone] |
| 5200 (≈ 45.5 mM) | CCC(=O)CC(C)C [5-methyl-3-hexanone] |
| 800 (≈ 6.24 mM) | CC(=O)CCCC(C)C [6-methyl-2-heptanone] |
| 900 (≈ 7.02 mM) | CCC(=O)CCC(C)C [6-methyl-3-heptanone] |

Same assay, conditions: not suitable as solvent B

| Compound | solubility in water (in words) |
| --- | --- |
| CC(C)=O [acetone] | completely miscible with water |
